Test results as given in PubChem BioAssay AID179 (DTP/NCI, 2004).
Several values for one entry are separate records, joined by “and”; a condition that tells them apart may be missing. Equal values may be shown once. Activity calls are given as the source filed them.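 Rule for the calls: active = compounds giving half or more protection of infected cells from virus-caused growth loss, again on retest; inactive = the rest.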

System: CEM cells HIV-1 protection, formazan growth assay
Assay: NCI AIDS Antiviral Assay
Conditions: for IC50: measured here: growth of uninfected CEM cells
Procedure, shortened: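 Soluble formazan readout of cell growth; CEM cells ± HIV-1; 5 drug concs. ≥50% protection → retest; ≥50% again = moderately active; reproducible 100% = confirmed active.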

| Compound | EC50 | IC50 | outcome |
| --- | --- | --- | --- |
| N#CCCN(C1=NN(C(=O)CC(=O)Nc2ccccc2Cl)C(c2ccccc2)C1)c1ccc(Cl)cc1 (centres undefined) | > 3.89 µM | > 3.89 µM |  |
| Nc1ccc(SSc2ccc(N)cc2)cc1 | > 200 µM | 25.1 µM and 29.5 µM |  |
| COc1ccc(Cc2nnc(Nc3ccc(Br)cc3)[nH]c2=O)cc1OC | > 200 µM | 33.9 µM |  |
| CN(C)c1ccc(/C=C(\C#N)c2ccccc2Cl)cc1 | > 15.8 µM | 4.47 µM |  |
| CCOC(=O)Nc1ccc(/C=C\c2ccnc3ccccc23)cc1 | > 16.2 µM | 10 µM |  |
| CC(C)(C)OC(=O)NC1CC=CCC1NC(=O)OC(C)(C)C (centres undefined) | > 200 µM | > 200 µM |  |
| C[N+]1(CCCl)CCc2cc([N+](=O)[O-])ccc2C1 (centres undefined) | > 200 µM | > 200 µM |  |
| N#Cc1c(-c2ccccc2)cn2c1[nH]c(=O)c1ccccc12 | > 200 µM | 30.2 µM |  |
| O=C(O)CN(CCN(CC(=O)O)CC(=O)O)CC(=O)O.[Cu+2].[Na+] | > 200 µM | 8.91 µM |  |
| CC1C(=O)C(C)C(c2cccs2)N(N=O)C1c1cccs1 (centres undefined) | > 58.9 µM | 37.2 µM |  |
| CCOC1=C(c2ccccc2)N2CCCCC2O1 (centres undefined) | > 200 µM | 2.57 µM |  |
| O=C(/C=C/c1c(O)ccc2ccccc12)c1cccc2ccccc12 | > 162 µM | 112 µM |  |
| CC(C)(C)OC(=O)NC(Cc1ccccc1)C(=O)OCN1C(=O)C2C3C=CC(C2C1=O)C1C2C(=O)N(COC(=O)C(Cc4ccccc4)NC(=O)OC(C)(C)C)C(=O)C2C31 (centres undefined) | > 100 µM | 15.5 µM |  |
| C=C[C@H]1C=Cc2ccccc2[C@]1(C=O)CCC1(C)OCCO1 | > 832 µM | 676 µM |  |
| CC(=O)OC(CC1(C)C(C)CCC23COC(=O)C2=CCCC31)C1=CC(=O)OC1O (centres undefined) | > 447 µM | > 447 µM |  |
| Cc1c(C2(c3cc(C(C)C)c(O)c(CN(CC(=O)O)CC(=O)O)c3C)OS(=O)(=O)c3ccccc32)cc(C(C)C)c(O)c1CN(CC(=O)O)CC(=O)O | > 100 µM | > 100 µM |  |
| C=C1C(C)C2C(Cc3ccccc3)NC(=O)C23OC(=O)/C=C\CC(=O)CCC(C)C/C=C/C3C1O (centres undefined) | > 38.9 µM | 1.45 µM |  |
| N=C1/C(=C/c2ccccc2)C(=O)N=C2SC=NN12 | > 200 µM | > 200 µM |  |
| Oc1[nH]c(=S)sc1/C=C1\C=Nc2ccccc21 | > 501 µM | 195 µM |  |
| CCOC(=O)C1=C(NC(C)(C)C)OCC1=O |  |  | inactive |
| Clc1cc2nnn(C3CCCO3)c2cc1Cl (centres undefined) | > 200 µM | 123 µM |  |
| NNC(=O)C1C2c3ccccc3C(c3ccccc32)C1C(=O)O (centres undefined) | > 200 µM | > 200 µM |  |
| O=C1NC(=S)S/C1=C\c1ccc2c(c1)OCO2 | > 200 µM | 85.1 µM |  |

| Compound | EC50 | IC50 | outcome |
| --- | --- | --- | --- |
| CCOC(=O)CC1CCN(C(=O)c2ccccc2)C2Cc3c([nH]c4ccccc34)C12C[N+](=O)[O-] (centres undefined) | > 200 µM | 85.1 µM |  |
| COc1ccccc1-n1c(=S)n(-c2ccccc2C)c2nc3ccccc3nc1/c2=N\Nc1ccccn1 | > 200 µM | > 200 µM |  |
| Cc1ccc(-c2n[nH]c(=O)n2N)cc1 | > 200 µM | > 200 µM |  |
| COC(=O)c1ccccc1C1CN=NC12Cc1c(C)ccc(C)c1C2=O (centres undefined) | > 200 µM | 155 µM |  |
| O=Nc1ccc(C=C2C(=O)C=CC2=O)cc1 | > 200 µM | 10.2 µM |  |
| CC/C(=C(\C#N)c1ccc(OCCN(CC)CC)cc1)c1ccc(OCCN(CC)CC)cc1 | > 200 µM | 1.86 µM |  |
| CN(C(=O)c1ccc2c(c1)sc1c(=O)n(C)c3ccccc3c12)c1ccccc1 | > 200 µM | > 200 µM |  |
| CN1C2CCC1[C@@H](CO)[C@@H](O)C2 (some centres undefined) | > 1200 µM | > 1200 µM |  |
| Cc1cccc(N=NC2Sc3nc4ccccc4n3C2=O)c1 (centres undefined) | > 200 µM | > 200 µM |  |
| COc1cc(C)cc2c(-c3ccc(O)c4c(OC)cc(C)cc34)ccc(O)c12 | > 100 µM | 2.95 µM |  |
| CN(C)c1ccc(-c2cc(C(=O)O)c3c(ccc4ccccc43)n2)cc1 | > 20.9 µM | > 20.9 µM |  |
| O=Nc1cc(S(=O)(=O)O)c2cccnc2c1O | > 200 µM | 52.5 µM |  |
| COc1c(Br)c(=O)n(C)c(=O)n1C | > 200 µM | > 200 µM |  |
| O=c1cc(-c2ccccc2)oc2cc(O)cc(O)c12 | > 87.1 µM | 38 µM |  |
| COc1cc(OC)cc(C2(C#N)CCN(C)CC2)c1 | > 191 µM | > 191 µM |  |
| CC(C)(C)c1n[nH]c(C(C)(C)C)c1N=O | > 200 µM | 97.7 µM |  |
| Brc1ccc(-c2cc(-c3ccc4c(c3)OCO4)c(-c3cccs3)n2Cc2ccccc2)cc1 | > 200 µM | > 200 µM |  |
| CN(C)c1ccc(N=Nc2ccc(/C=C/c3ccnc4ccccc34)cc2)cc1 | > 19.1 µM | > 19.1 µM |  |
| CCCNC(=O)N(CCN(C)C)S(=O)(=O)c1ccc(Cl)cc1 |  |  | inactive |
| CN1C(=O)Nc2ncn(C)c2S1(=O)=O | > 603 µM | > 603 µM |  |
| CC(SC(C)C(=O)N/N=C/c1c[nH]c2ccccc12)C(=O)N/N=C\c1c[nH]c2ccccc12 (centres undefined) | > 200 µM | 120 µM |  |
| CCCc1cc(=O)oc2c3c(c4c(c12)OC(N)=C(C#N)C4c1ccccc1)O[C@H](C)[C@@H](C)C3=O (some centres undefined) | > 200 µM | 8.71 µM |  |
| COc1cc(C2c3cc4c(c(O)c3C[C@H]3COC(=O)[C@@H]23)OCO4)cc(OC)c1O (some centres undefined) | > 200 µM | 0.0631 µM |  |

| Compound | EC50 | IC50 | outcome |
| --- | --- | --- | --- |
| O=[N+]([O-])c1ccc(Cc2ccc([N+](=O)[O-])cc2)cc1 | > 28.2 µM | > 28.2 µM |  |
| Oc1cc2cccc[n+]2c2cccc(Cl)c12 | > 200 µM | 34.7 µM |  |
| O=C(CCCCCCCCCCc1ccccc1)C1=C(O)C(O)CCC1=O (centres undefined) |  |  | inactive |
| Clc1ccc(OCC(COc2ccccc2)Oc2nc(-c3ccccc3)nc(-c3ccccc3)n2)cc1 (centres undefined) | > 3.89 µM | > 3.89 µM |  |
| O=C(Nc1cccc(C(F)(F)F)c1)C(=O)C1NC(=S)NC1=O (centres undefined) | > 191 µM | > 191 µM |  |
| CC1(CCC#N)CCC(N)=CC1=O (centres undefined) | > 200 µM | > 200 µM |  |
| O=C(/C=N/O)Nc1cccc(Cl)c1I | > 110 µM | 93.3 µM |  |
| O=C(Nc1ccc([N+](=O)[O-])cc1C(=O)O)c1ccc([N+](=O)[O-])cc1 |  |  | inactive |
| CC1NC(=O)C2=C1C(N)=NC(=O)C2 (centres undefined) | > 1000 µM | > 1000 µM |  |
| CC1=C(C)CP(=O)(c2ccccc2)C1 | 0.0631 µM | > 200 µM |  |
| COc1ccc(/C=N/n2c(=O)[nH]c3ccccc3c2=O)cc1 | > 200 µM | > 200 µM |  |
| Cc1ccc2nc(NC(=S)NCCCCNC(=S)Nc3ccc4cc(C)ccc4n3)ccc2c1 | > 10.7 µM | > 10.7 µM |  |
| COC(=O)C1C2CC3C(OC(=O)C31)C2OC(=O)[C@](OC)(c1ccccc1)C(F)(F)F (some centres undefined) | > 83.2 µM | > 83.2 µM |  |
| CCOC(=O)NCC(OS(C)(=O)=O)C(CNC(=O)OCC)OS(C)(=O)=O (centres undefined) | > 120 µM | > 120 µM |  |
| O=c1oc2cc(O)ccc2c(O)c1C(c1ccccc1F)c1c(O)c2ccc(O)cc2oc1=O |  |  | inactive |
| CNc1ncn(-c2c(C)cccc2C)c(=O)n1 | > 200 µM | > 200 µM |  |
| C=CCN1C(=O)CS/C1=N\NC(=O)c1c(C)nc2sccn12 | > 741 µM | 240 µM |  |
| COc1c(-c2cc(C)c(Cl)c(=O)[nH]2)c(O)c(OC)c2occc12 | > 200 µM | 110 µM |  |
| CCc1cccc(C)c1NC(=O)CCc1nc(=S)[nH][nH]1 | > 617 µM | > 617 µM |  |
| COc1ccc(/C=N/Nc2nc3ccccc3c(=O)n2-c2ccccc2)c(OCc2ccccc2)c1 | > 200 µM |  |  |
| COc1cc2oc(=O)cc(C)c2c(OC)c1OC(C)=O | > 200 µM | > 200 µM |  |
| CN(C)C=Nc1cccc2c1NSN2 | > 200 µM | > 200 µM |  |
| C[C@@H]1C(N2CCCC2)=CC(=O)OC1c1ccccc1 (some centres undefined) | > 200 µM | > 200 µM |  |

| Compound | EC50 | IC50 | outcome |
| --- | --- | --- | --- |
| Cc1sc2ncnc(N)c2c1C | > 275 µM | > 275 µM |  |
| NC(Cc1ccc(S(=O)(=O)O)cc1)C(=O)NC(Cc1ccc(S(=O)(=O)O)cc1)C(=O)NC(Cc1ccc(S(=O)(=O)O)cc1)C(=O)NC(Cc1ccc(S(=O)(=O)O)cc1)C(=O)O (centres undefined) | > 200 µM | > 200 µM |  |
| O=S1(=O)O[C@H]2CCCC[C@H]2O1 | > 40.7 µM | > 40.7 µM |  |
| COc1ccc2c(c1)OC(=O)C(S(=O)(=O)c1ccccc1)C2 (centres undefined) | > 295 µM | > 295 µM |  |
| COC(=O)C1=C(OC)C(=P2(c3ccccc3)CC(c3ccccc3)=C2c2ccccc2)C(C(=O)OC)=C1C(=O)OC (centres undefined) |  |  | inactive |
| OCC1NCC(O)C(O)C1O (centres undefined) | > 200 µM | > 200 µM |  |
| CCOP(=O)(OCC)C(C(=O)OC)C(=O)C(=O)Nc1cccc([N+](=O)[O-])c1 (centres undefined) | > 617 µM | > 617 µM |  |
| Cc1cc2c(cc1Cl)SC(NNc1ccc([N+](=O)[O-])cc1)=NS2(=O)=O |  |  | inactive |
| C/C(N=NS(=O)(=O)c1ccc(C)cc1)=C1\C=CC=CN1O |  |  | inactive |
| COc1ccc(OC)c2c(=O)c3ccccc3[nH]c12 |  |  | inactive |
| Clc1c(Cl)c(Cl)c2c(nnn2C2CCCO2)c1Cl (centres undefined) | > 200 µM | 33.1 µM |  |
| O=C(NO)C(=O)Nc1cc(Cl)ccc1Cl | > 145 µM | 66.1 µM |  |
| COC1OC(Cn2cc([N+](=O)[O-])nc2C)C(O)C(O)C1O (centres undefined) | > 200 µM | > 200 µM |  |
| C=CC1ON(Cc2ccccc2)CCc2cc(OC)c(OC)cc21 (centres undefined) | > 200 µM | 40.7 µM |  |
| O=C(Nc1ccc(N=Nc2ccc(S(=O)(=O)O)cc2)cc1)c1ccc(N=Nc2ccc3c(S(=O)(=O)O)cccc3c2O)cc1 | 30.9 µM | 195 µM |  |
| NC(=O)CNC(=O)c1ccccc1SC(=O)CCCCC[n+]1ccccc1 | 1.41 µM | 38 µM |  |
| C=C=C[P+](c1ccccc1)(c1ccccc1)c1ccccc1 | > 155 µM | 3.24 µM |  |
| Cc1cc(C)c(N)c(CO)c1 | > 200 µM | > 200 µM and 107 µM |  |
| O=c1cc(/C=C/c2ccccc2)c2ccc(O/C(=C\c3ccccc3)c3nc4ccccc4c(=O)o3)cc2o1 |  |  | inactive |
| COc1c(Cl)nc2ccccc2c1N=[N+]=[N-] | > 200 µM | 135 µM |  |
| CC(O[Si](c1ccccc1)(c1ccccc1)C(C)(C)C)[C@H](NC(=O)OC(C)(C)C)C(=O)O[Si](c1ccccc1)(c1ccccc1)C(C)(C)C (some centres undefined) | > 26.9 µM | 24 µM |  |
